Reference: US11066414B2, “Cot modulators and methods of use thereof” (Gilead Sciences, Inc., priority 2015, dated 2021)
Read-outs that look alike come from different tables or passages of the source.

Key:
Human Cot = Human Cot (Homo sapiens (Human), UniProt P41279); assay: High Throughput Cot Biochemical Assay
TNFα = assay: Cot Monocyte TNFα Cell Based Assay
Method: The cell suspension was then plated at a density of 5,000 cells/well onto black 384 well Greiner clear bottom plates. Plates were pre-spotted with test compounds and serially diluted in DMSO where 200 nL/well were delivered using the Echo 550 acoustic liquid dispenser (Labcyte®) for a final DMSO concentration of 0.5%. Plated cells were treated with compound for 1 hour at 37° C. Cells were then stimulated with 50 pg/ml of LPS (Sigma) excluding outside columns of plate used for unstimulated cell control wells. Cells were incubated for an additional 4 hours at 37° C. Cells were then spun out of the media and 5 μl of sample were taken and analyzed for total TNFα content using the TR-FRET Human TNFα detection system (CisBio). This system utilizes two labeled antibodies (cryptate and XL665) that bind to two different epitopes of the TNFα molecule and produce FRET signal proportional to the concentration of TNFα in the sample. […] Plates were covered with clear seals and incubated at room temp overnight. […] Percent of control was calculated as follows: % Control=100×(RatioSample−Ratio0% Stimulation)/(Ratio100% Stimulation−Ratio0% Stimulation) where unstimulated cells (0% stimulation) were the negative control and stimulated cells (100% stimulation) were used as the positive control.

[1] = IC50 HTRF, Cot HTRF (TR-FRET) biochemical assay
[2] = Homo sapiens, Monocyte, read-out: EC50 TNF, LPS-stimulated human monocytes, TNFα

Human Cot, sequence (P41279 30-397): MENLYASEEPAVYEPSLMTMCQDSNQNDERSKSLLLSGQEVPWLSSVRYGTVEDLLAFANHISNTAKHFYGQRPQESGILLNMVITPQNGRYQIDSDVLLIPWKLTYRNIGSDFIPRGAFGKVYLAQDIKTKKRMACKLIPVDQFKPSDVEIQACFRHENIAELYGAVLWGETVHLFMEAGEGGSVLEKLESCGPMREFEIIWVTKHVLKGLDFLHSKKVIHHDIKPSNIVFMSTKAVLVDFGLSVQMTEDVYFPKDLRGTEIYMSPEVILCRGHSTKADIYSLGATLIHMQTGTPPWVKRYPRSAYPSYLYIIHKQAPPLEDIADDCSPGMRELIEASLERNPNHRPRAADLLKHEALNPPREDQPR

| Compound | IC50 (Human Cot; [1]) | EC50 (TNFα; [2]) | other results |
| --- | --- | --- | --- |
| Cc1nc(F)ccc1[C@H](Nc1cc(Cl)c2ncc(C#N)c(Nc3cnc(F)c(F)c3)c2c1)c1cn(C2(C(F)F)CC2)nn1 [Example 742, (S)-8-chloro-6-(((1-(1-(difluoromethyl)cyclopropyl)-1H-1,2,3-triazol-4-yl)(6-fluoro-2-methylpyridin-3-yl)methyl)amino)-4-((5,6-difluoropyridin-3-yl)amino)quinoline-3-carbonitrile] | 17 nM | 199 nM |  |
| Cc1nc(F)ccc1[C@H](Nc1cc(Cl)c2ncc(C#N)c(NCC(C)(C)CCl)c2c1)c1cn(C2(C(F)(F)F)CC2)nn1 [Example 635, (S)-8-chloro-4-((3-chloro-2,2-dimethylpropyl)amino)-6-(((6-fluoro-2-methylpyridin-3-yl)(1-(1-(trifluoromethyl)cyclopropyl)-1H-1,2,3-triazol-4-yl)methyl)amino)quinoline-3-carbonitrile] | 3 nM | 60 nM |  |
| CC(C)(C)N1CCC(n2cc([C@@H](Nc3cc(Cl)c4ncc(C#N)c(Nc5ccc(F)c(Cl)c5)c4c3)c3ccc4sccc4c3)nn2)CC1 [Example 64, (S)-6-((benzo[b]thiophen-5-yl(1-(1-(tert-butyl)piperidin-4-yl)-1H-1,2,3-triazol-4-yl)methyl)amino)-8-chloro-4-((3-chloro-4-fluorophenyl)amino)quinoline-3-carbonitrile] | 42 nM | 2650 nM |  |
| CC(C)(C)n1cc([C@@H](Nc2cc(Cl)c3ncc(C#N)c(Nc4ccc(F)c(Cl)c4)c3c2)c2cocn2)nn1 [Example 310, (S)-6-(((1-(tert-butyl)-1H-1,2,3-triazol-4-yl)(oxazol-4-yl)methyl)amino)-8-chloro-4-((3-chloro-4-fluorophenyl)amino)-quinoline-3-carbonitrile] | 40 nM | 2340 nM |  |
| C[C@@H](n1cc([C@@H](Nc2cc(Cl)c3ncc(C#N)c(Nc4cnc(F)c(F)c4)c3c2)c2cccnc2)nn1)C(F)(F)F [Example 205, 8-chloro-4-((5,6-difluoropyridin-3-yl)amino)-6-(((S)-pyridin-3-yl(1-((R)-1,1,1-trifluoropropan-2-yl)-1H-1,2,3-triazol-4-yl)methyl)amino)quinoline-3-carbonitrile] | 72 nM | 2050 nM |  |
| Cn1nnc2cccc([C@H](Nc3cc(C#N)c4ncc(C#N)c(NCC(C)(C)C)c4c3)c3cn(C4(C(F)(F)F)CC4)nn3)c21 [Example 527, (S)-6-(((1-methyl-1H-benzo[d][1,2,3]triazol-7-yl)(1-(1-(trifluoromethyl)cyclopropyl)-1H-1,2,3-triazol-4-yl)methyl)amino)-4-(neopentylamino)quinoline-3,8-dicarbonitrile] | 3 nM | 78 nM |  |
| CC(C)(C)CNc1c(C#N)cnc2c(C#N)cc(N[C@H](c3cn(C4(C(F)F)CC4)nn3)c3cccc4ccncc34)cc12 [Example 552, (S)-6-(((1-(1-(difluoromethyl)cyclopropyl)-1H-1,2,3-triazol-4-yl)(isoquinolin-8-yl)methyl)-amino)-4-(neopentylamino)quinoline-3,8-dicarbonitrile] | 2 nM | 26 nM |  |
| Cc1scnc1[C@H](Nc1cc(C#N)c2ncc(C#N)c(NCC(C)(C)C)c2c1)c1cn(C2(C(F)F)CC2)nn1 [Example 641] |  |  | IC50 (Human Cot; read-out: IC50 HTRF, Cot HTRF (TR-FRET) biochemical assay): 55 nM; EC50 (TNFα; read-out: EC50 TNF, LPS-stimulated human monocytes, TNFα): 811 nM |
| Cc1nc(F)ccc1[C@H](Nc1cc(C#N)c2ncc(C#N)c(NCC(C)(C)C)c2c1)c1nnn(C2CC2)c1C1CC1 [Example 857, (S)-6-(((l,5-dicyclopropyl-1H-1,2,3-triazol-4-yl)(6-fluoro-2-methylpyridin-3-yl)methyl)amino)-4-(neopentylamino)quinoline-3,8-dicarbonitrile] |  |  | IC50 (Human Cot; read-out: IC50 HTRF, Cot HTRF (TR-FRET KinEASE) biochemical assay, 400 μM ATP): 4 nM; EC50 (TNFα; read-out: EC50 TNF, LPS-stimulated human monocytes, TNFα TR-FRET): 180 nM |
